Where a name gives a salt, the structure may show the parent alone.
How the values were obtained:
[1] = system: human monocyte stimulated cytokine production (TNF-α); assay: Monocyte assay (LPS-stimulated TNF-α production); format: cell-based; details: for inhibition at 0.3 µM: read-out: inhibition at 300 nM in the monocyte assay; for IC50: 24 h, 200 ng/mL LPS, TNF-α by ELISA
Method: Effect of IKK-β inhibition on human monocyte stimulated cytokine production was assessed as follows: Monocytes were isolated from heparinized whole blood by Ficoll gradient, followed by purification of CD14+ cells using MACS magnetic cell separation beads. Isolated monocytes were then adhered to 96-well culture plates at 1×10^6 cells/mL in RPMI 1640 10% FBS (JRH Biosciences, Lenexa Kans.) for 2 h. Test compounds are added to the wells 30 minutes prior to stimulation with a final vehicle concentration of 0.1% DMSO. Monocytes were activated by the addition of 200 ng/mL endotoxin (LPS; E. coli serotype 026:B6)(Sigma, St. Louis, Mo.) and incubated for 24 hrs at 37 C. Cell-free supernates were analyzed by ELISA for TNF-α using Pharmingen matched pair Abs. Viability of the cells was determined by 10% trypan blue exclusion.

[2] = target: T1, Recombinant human IKKβ (residues 1-737) (Homo sapiens, UniProt O14920); assay: IKK2 assay (TR-FRET); format: biochemical; details: ATP 1 μM final, read-out: pIC50 against IKK2 (converted)
T1 construct: Recombinant human IKKβ (residues 1-737); GST (C); made in house
T1 sequence (O14920 1-737): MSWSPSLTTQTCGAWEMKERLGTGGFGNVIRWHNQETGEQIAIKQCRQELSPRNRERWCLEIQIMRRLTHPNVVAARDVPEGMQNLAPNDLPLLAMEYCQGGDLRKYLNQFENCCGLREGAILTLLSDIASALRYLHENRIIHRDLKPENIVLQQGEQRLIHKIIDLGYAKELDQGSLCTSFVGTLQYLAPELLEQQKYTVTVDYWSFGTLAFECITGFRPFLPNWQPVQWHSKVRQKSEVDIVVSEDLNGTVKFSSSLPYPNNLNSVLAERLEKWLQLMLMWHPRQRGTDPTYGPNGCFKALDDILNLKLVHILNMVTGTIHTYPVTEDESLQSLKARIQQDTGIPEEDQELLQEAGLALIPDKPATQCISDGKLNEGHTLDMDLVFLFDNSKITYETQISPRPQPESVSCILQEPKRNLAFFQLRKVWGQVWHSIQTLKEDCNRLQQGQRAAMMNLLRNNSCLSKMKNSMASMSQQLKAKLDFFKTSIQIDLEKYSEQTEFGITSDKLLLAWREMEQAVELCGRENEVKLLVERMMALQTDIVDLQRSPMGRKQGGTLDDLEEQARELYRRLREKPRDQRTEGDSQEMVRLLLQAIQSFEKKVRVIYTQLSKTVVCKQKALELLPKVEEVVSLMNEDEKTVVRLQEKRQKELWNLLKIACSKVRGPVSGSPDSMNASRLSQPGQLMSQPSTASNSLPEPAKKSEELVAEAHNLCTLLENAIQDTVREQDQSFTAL
How it was run: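 Baculovirus-expressed C-terminal GST-tagged IKKβ (0.5-5 nM final) in HEPES pH 7.4, MgCl2, CHAPS, DTT, BSA with 1.7% DMSO; 25 nM GST-IB substrate and 1 μM ATP, 15 min at room temperature. EDTA stop; phospho-Ser32/36 detected by Eu-antibody/APC-anti-GST TR-FRET, 665/620 nm ratio.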

Compound | inhibition at 0.3 µM [1] [%] | IC50 [2] [µM] | IC50 [1] [nM]
CCS(=O)(=O)N1CCC(c2c[nH]c3c(C(N)=O)cc(-c4csc(CNCC(C)C)n4)cc23)CC1 [Example 352, 3-[1-(ethylsulfonyl)-4-piperidinyl]-5-(2-{[(2-methylpropyl)amino]methyl}-1,3-thiazol-4-yl)-1H-indole-7-carboxamide trifluoroacetate] | 0 to 60 | ≤ 10 | 
CCS(=O)(=O)N1CCC(c2c[nH]c3c(C(N)=O)cc(-c4cccc(C(C)N5CCCC5)c4)cc23)CC1 (centres unmarked) [Example 296, 3-[1-(ethylsulfonyl)-4-piperidinyl]-5-{3-[1-(1-pyrrolidinyl)ethyl]phenyl}-1H-indole-7-carboxamide trifluoroacetate] |  | ≤ 10 | ≤ 1500
CCS(=O)(=O)N1CCC(c2c[nH]c3c(C(N)=O)cc(-c4cccc(CN5CCN(CCOCCO)CC5)c4)cc23)CC1 [Example 6, 3-[1-(ethylsulfonyl)-4-piperidinyl]-5-{3-[(4-{2-[(2-hydroxyethyl)oxy]ethyl}-1-Piperazinyl)methyl]phenyl}-1H-indole-7-carboxamide] |  | ≤ 10 | ≤ 1500
CCS(=O)(=O)N1CCC(c2c[nH]c3c(C(N)=O)cc(-c4csc(CN(C)C(C)(C)C)c4)cc23)CC1 [Example 406, 5-(5-{[(1,1-dimethylethyl)(methyl)amino]methyl}-3-thienyl)-3-[1-(ethylsulfonyl)-4-piperidinyl]-1H-indole-7-carboxamide trifluoroacetate] |  | ≤ 10 | ≤ 1500
CCC(C)(C)N(C)Cc1cc(-c2cc(C(N)=O)c3[nH]cc(C4CCN(S(=O)(=O)CC)CC4)c3c2)cs1 [Example 412, 5-{5-[(1,1-dimethylpropyl)(methyl)amino]methyl}-3-thienyl)-3-[1-(ethylsulfonyl)-4-piperidinyl]-1H-indole-7-carboxamide trifluoroacetate] |  | ≤ 10 | ≤ 1500
CCS(=O)(=O)N1CCC(c2c[nH]c3c(C(N)=O)cc(-c4csc(CN(C)Cc5ccccc5)c4)cc23)CC1 [Example 74, 3-[1-(ethylsulfonyl)-4-piperidinyl]-5-(5-{[methyl(phenylmethyl)amino]methyl}-3-thienyl)-1H-indole-7-carboxamide trifluoroacetate] | 0 to 60 | ≤ 10 | 
CCS(=O)(=O)N1CCC(c2c[nH]c3c(C(N)=O)cc(-c4csc(CN5[C@H](C)CC[C@H]5C)c4)cc23)CC1 [Example 108, 5-(5-{[(2R,5R)-2,5-dimethyl-1-pyrrolidinyl]methyl}-3-thienyl)-3-[1-(ethylsulfonyl)-4-piperidinyl]-1H-indole-7-carboxamide trifluoroacetate] |  | ≤ 10 | ≤ 1500
CCS(=O)(=O)N1CCC(c2c[nH]c3c(C(N)=O)cc(-c4csc(CN(C)CCCN(C)C)c4)cc23)CC1 [Example 70, 5-(5-{[[3-(dimethylamino)propyl](methyl)amino]methyl}-3-thienyl)-3-[1-(ethylsulfonyl)-4-piperidinyl]-1H-indole-7-carboxamide trifluoroacetate] |  | ≤ 10 | > 1000
CCS(=O)(=O)N1CCC(c2c[nH]c3c(C(N)=O)cc(-c4csc(CN(C)CC#N)c4)cc23)CC1 [Example 401, 5-(5-{[(cyanomethyl)(methyl)amino]methyl}-3-thienyl)-3-[1-(ethylsulfonyl)-4-piperidinyl]-1H-indole-7-carboxamide] |  | ≤ 10 | ≤ 1500
CCS(=O)(=O)N1CCC(c2c[nH]c3c(C(N)=O)cc(-c4ccc(C5CNCCN5)s4)cc23)CC1 (centres unmarked) [Example 298, 3-[1-(ethylsulfonyl)-4-piperidinyl]-5-[5-(2-piperazinyl)-2-thienyl]-1H-indole-7-carboxamide trifluoroacetate] |  | ≤ 10 | ≤ 1500
CCS(=O)(=O)N1CCC(c2c[nH]c3c(C(N)=O)cc(-c4cnn(CCN5CCOCC5)c4)cc23)CC1 [Example 254, 3-[1-(ethylsulfonyl)-4-piperidinyl]-5-{1-[2-(4-morpholinyl)ethyl]-1H-pyrazol-4-yl}-1H-indole-7-carboxamide trifluoroacetate] |  | ≤ 10 | > 1000
CCS(=O)(=O)N1CCC(c2c[nH]c3c(C(N)=O)cc(-c4ccc(CNCC5CC5)s4)cc23)CC1 [Example 172, 5-(5-{[(cyclopropylmethyl)amino]methyl}-2-thienyl)-3-[1-(ethylsulfonyl)-4-piperidinyl]-1H-indole-7-carboxamide] |  | ≤ 10 | ≤ 1500
CCS(=O)(=O)N1CCC(c2c[nH]c3c(C(N)=O)cc(-c4cc(F)cc(CNCc5ccc(C)o5)c4)cc23)CC1 [Example 330, 3-[1-(ethylsulfonyl)-4-piperidinyl]-5-[3-fluoro-5-({[(5-methyl-2-furanyl)methyl]amino}methyl)phenyl]-1H-indole-7-carboxamide trifluoroacetate] |  | ≤ 10 | > 1000
CCCN(C)Cc1cc(-c2cc(C(N)=O)c3[nH]cc(C4CCN(S(=O)(=O)CC)CC4)c3c2)cs1 [Example 68, 3-[1-(ethylsulfonyl)-4-piperidinyl]-5-(5-{[methyl(propyl)amino]methyl}-3-thienyl)-1H-indole-7-carboxamide trifluoroacetate] |  | ≤ 10 | ≤ 1500
CCCN(C)C(C)c1cc(-c2cc(C(N)=O)c3[nH]cc(C4CCN(S(=O)(=O)CC)CC4)c3c2)cs1 (centres unmarked) [Example 417, 3-[1-(ethylsulfonyl)-4-piperidinyl]-5-(5-{1-[methyl(propyl)amino]ethyl}-3-thienyl)-1H-indole-7-carboxamide trifluoroacetate] |  | ≤ 10 | ≤ 1500
CCS(=O)(=O)N1CCC(c2c[nH]c3c(C(N)=O)cc(-c4cncc(CN(C)C)c4)cc23)CC1 [Example 178, 5-{5-[(dimethylamino)methyl]-3-pyridinyl}-3-[1-(ethylsulfonyl)-4-piperidinyl]-1H-indole-7-carboxamide] | 0 to 60 | ≤ 10 | 
CCS(=O)(=O)N1CCC(c2c[nH]c3c(C(N)=O)cc(-c4cc(F)cc(CNCc5ccco5)c4)cc23)CC1 [Example 328, 3-[1-(ethylsulfonyl)-4-piperidinyl]-5-(3-fluoro-5-{[(2-furanylmethyl)amino]methyl}phenyl)-1H-indole-7-carboxamide trifluoroacetate] | 0 to 60 | ≤ 10 | 
CCS(=O)(=O)N1CCC(c2c[nH]c3c(C(N)=O)cc(-c4csc(CN(C)CCc5ccccn5)c4)cc23)CC1 [Example 76, 3-[1-(ethylsulfonyl)-4-piperidinyl]-5-[5-({methyl[2-(2-pyridinyl)ethyl]amino}methyl)-3-thienyl]-1H-indole-7-carboxamide trifluoroacetate] |  | ≤ 10 | ≤ 1500
CCNCCc1cccc(-c2cc(C(N)=O)c3[nH]cc(C4CCN(S(=O)(=O)CC)CC4)c3c2)c1 [Example 346, 5-{3-[2-(ethylamino)ethyl]phenyl}-3-[1-(ethylsulfonyl)-4-piperidinyl]-1H-indole-7-carboxamide trifluoroacetate] |  | ≤ 10 | ≤ 1500
CCS(=O)(=O)N1CCC(c2c[nH]c3c(C(N)=O)cc(-c4cccc(CNC(=O)C5CC5)c4)cc23)CC1 [Example 368, 5-(3-{[(cyclopropylcarbonyl)amino]methyl}phenyl)-3-[1-(ethylsulfonyl)-4-piperidinyl]-1H-indole-7-carboxamide] |  | ≤ 10 | ≤ 1500
CCS(=O)(=O)N1CCC(c2c[nH]c3c(C(N)=O)cc(-c4ccc(CNOC)cc4)cc23)CC1 [Example 390, 3-[1-(ethylsulfonyl)-4-piperidinyl]-5-(4-{[(methyloxy)amino]methyl}phenyl)-1H-indole-7-carboxamide] |  | ≤ 10 | > 1000
CCS(=O)(=O)N1CCC(c2c[nH]c3c(C(N)=O)cc(-c4cncc(CNCC(F)(F)F)c4)cc23)CC1 [Example 63, 3-[1-(ethylsulfonyl)-4-piperidinyl]-5-(5-{[(2,2,2-trifluoroethyl)amino]methyl}-3-pyridinyl)-1H-indole-7-carboxamide] | 0 to 60 | ≤ 10 | 

Source: US8063071B2 (GlaxoSmithKline, LLC, priority 2007, dated 2011)
